The values that follow come from paper PMC7948422, “Repurposing p97 inhibitors for chemical modulation of the bacterial ClpB–DnaK bichaperone system” (The Journal of Biological Chemistry, 2020).

For one data set, the target named is T1, ClpB hexamers (Escherichia coli, UniProt P63284).
T1 construct: made in house
Kind of data set: Sedimentation velocity analytical ultracentrifugation of ClpB. To be noted: 50 µM DBeQ, 1 mM ATPγS, 1 mg/ml ClpB. As for the experimental part:
Protein samples (0.5 ml) of wt ClpB and its variants W462F and W543F were dialyzed against 3 changes of 1 l of buffer AUC (50-mM Tris-HCl, pH 7.4, 200-mM KCl, 20-mM MgCl2, 1-mM EDTA, 0.5-mM TCEP). After dialysis, the samples were centrifuged (15 min, 13,000 RPM, 4 °C). The supernatants were collected, and the protein concentration was determined with the Bradford assay. Sedimentation velocity experiments were performed in Beckman Optima XL-I analytical ultracentrifuge equipped with a 4-cell rotor and 2-sector cells. The ClpB samples were diluted to 1 mg/ml in the AUC buffer supplemented with DMSO (5% (v/v) final concentration) with 1-mM ATPɤS, with or without 50-μM DBeQ. Centrifugation was performed at 48,000 RPM at 20 °C. The sedimentation profiles were collected using the interference detection system and analyzed with the Origin software supplied by the instrument manufacturer using the time-derivative method of Stafford ([71]). Observed sedimentation coefficients were corrected to values corresponding to the density and viscosity of water (s20,w) using Sednterp software (www.jphilo.mailway.com) with additional corrections for the presence of 5% DMSO ([72]).

Data set [1] in a line: Solubility of DBeQ in aqueous buffer (absorbance/turbidity). In kind it is physicochemical. To be noted: aqueous ATPase assay buffer, 1% DMSO. As for the experimental part: Supplementary Figure 3. Solubility of DBeQ in aqueous solution. Solutions of DBeQ
were prepared in the ATPase assay buffer containing 1% DMSO. (A) DBeQ absorbance at
320 nm (blue) and solution turbidity at 400 nm (red) for increasing DBeQ concentrations. (B)
UV absorption spectrum of 100 μM DBeQ.
Supplementary Figure 4. The ATP-binding modules (D1 and D2) separated with the
middle domain (MD) in E. coli ClpB (PDB entry: 5OG1). Trp462 (red), Trp543 (magenta),
and the ATP-analog, ATPγS (dark blue) bound in D1 and D2 are shown with a “stick”
representation. Image generated using PyMOL 1.3 (Schrödinger LLC, www.pymol.com). […]

The subject of data set [2] is ΔclpB E. coli expressing ClpB–YFP. The experiment in a line: Viability of ΔclpB strain expressing ClpB-YFP. Format: cell-based, Escherichia coli. To be noted: 45 °C, 3 h. The procedure:
E. coli MC4100, MC4100ΔclpB, dnaK103, and dnaK756 strains were used to determine an influence of DBeQ on bacterial growth and viability. Bacteria were maintained in the LB media, and in the case of the MC4100ΔclpB strain, LB was supplemented with 30 μg/ml kanamycin. All experiments were initiated by preparing overnight cultures inoculated from single colonies and grown at 37 °C. The dnaK103 and dnaK756 overnight cultures were grown at 30 °C. On the following day, the cultures were diluted 100-fold in 10 ml of LB without antibiotics and incubated at 37 °C. The culture optical density was monitored at 600 nm. When absorbance at 600 nm reached 0.4, the culture was divided into 1-ml aliquots and supplemented with 10 μl of DMSO or different concentrations of DBeQ in DMSO. The samples were immediately transferred into an incubator/shaker at temperature 37, 45, or 50 °C. Bacteria were cultured for up to 4 h with shaking (200 RPM). […] On the following day, the bacterial colonies were counted and the colony-forming units/ml were calculated.
Supplementary Figure 10. […] (Top) ClpB was detected using Western blotting. […]
(Bottom) Western blot analysis of the bacterial lysates with anti-ClpB antibody. […] The detected signals correspond to the full-length ClpB-YFP (ClpB95-YFP) and the N-terminally truncated ClpB80-YFP (1,2). […]

SMILES strings stand for the structures.

T1 sequence (P63284 whole entry): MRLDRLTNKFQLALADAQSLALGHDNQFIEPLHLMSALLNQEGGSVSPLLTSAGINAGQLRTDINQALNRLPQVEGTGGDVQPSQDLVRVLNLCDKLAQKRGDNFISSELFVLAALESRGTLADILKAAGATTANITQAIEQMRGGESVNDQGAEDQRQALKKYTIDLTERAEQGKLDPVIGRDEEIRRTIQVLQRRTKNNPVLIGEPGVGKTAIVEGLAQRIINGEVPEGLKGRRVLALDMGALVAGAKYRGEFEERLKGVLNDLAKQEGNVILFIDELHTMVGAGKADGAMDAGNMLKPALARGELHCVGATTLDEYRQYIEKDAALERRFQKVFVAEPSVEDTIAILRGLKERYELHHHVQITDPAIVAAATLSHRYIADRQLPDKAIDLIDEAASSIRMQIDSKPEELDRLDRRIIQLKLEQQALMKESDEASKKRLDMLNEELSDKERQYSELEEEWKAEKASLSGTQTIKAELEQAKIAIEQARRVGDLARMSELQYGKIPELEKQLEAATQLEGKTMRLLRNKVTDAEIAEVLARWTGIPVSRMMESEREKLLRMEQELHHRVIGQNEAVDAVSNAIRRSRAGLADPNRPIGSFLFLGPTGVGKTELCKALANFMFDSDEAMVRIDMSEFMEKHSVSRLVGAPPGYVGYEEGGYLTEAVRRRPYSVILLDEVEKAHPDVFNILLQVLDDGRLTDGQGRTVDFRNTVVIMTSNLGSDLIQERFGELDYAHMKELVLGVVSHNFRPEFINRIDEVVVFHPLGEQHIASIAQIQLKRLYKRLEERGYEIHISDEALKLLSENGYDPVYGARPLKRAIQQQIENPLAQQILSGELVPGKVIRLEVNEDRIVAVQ

As for `c1ccc(CNc2nc(NCc3ccccc3)c3ccccc3n2)cc1` [DBeQ, N^2,N^4-dibenzylquinazoline-2,4-diamine], the “dissociation of ClpB hexamers” value on ClpB hexamers is recorded as “does not induce dissociation”. For the same compound, the “DBeQ concentrations obeying Beer–Lambert law without significant turbidity increase” value in data set [1] is recorded as “up to 100 μM”. In data set [2], the “susceptibility of ΔclpB strain on expression of ClpB–YFP” value was “susceptibility to DBeQ was restored”.
